Three molecules from article PMC6628648, “Enabling microbial syringol conversion through structure-guided protein engineering” (Proceedings of the National Academy of Sciences of the …, 2019) can be followed below.

In the test the target is GcoA-F169A (Amycolatopsis sp., UniProt P0DPQ7, F169A). Kind of test: H2O2 detection via HRP and Amplex Red (uncoupling reaction). The format is biochemical, Amycolatopsis sp. ATCC 39116. Set-up: GST (N, cleaved yes); made in house; host or cells: E. coli Rosetta 2 (DE3). Conditions: referenced to NADH consumed. On the procedure:
A colorimetric assay involving HRP and Amplex Red was used to quantify H2O2 in the reaction between GcoA-F169A GcoA/GcoB, NADH and guaiacol, syringol, or 3MC, as described in SI Appendix. […]
vi = Vmax[S]/(KM + [S]) (4) […]
The reaction of each aliquot was immediately quenched with 12.5
μL saturated ammonium sulfate, 7% v/v H2SO4 (pH 2.0) prior to loading onto the HPLC column. [Substrate] disappearance was referenced to GcoA (0.2 µM) and fit to a linear line to determine specific activity.
Data analysis. The consumption of NADH and subsequent production of formaldehyde and aromatic product were measured in triplicate and the error reported as ±1 standard deviation. To determine the statistical significance between NADH consumption and the products produced, the p-value was determined for all runs containing guaiacol, syringol, and 3MC. These values were calculated using two degrees of freedom, a tail value of two, and assuming a t-statistical value for unequal variances.
Detection of H2O2 via horseradish peroxidase (HRP) and Amplex Red assay. The reaction between 100 μM guaiacol or 3MC with 0.2 μM F169A/GcoB and 100 μM NADH in air-saturated buffer (25 mM HEPES, 50 mM NaCl, pH 7.5) was monitored continuously in a quartz cuvette, using the NADH consumption assay described above. The same thing was done for syringol, but with either 100 or 200 μM NADH. When there was no longer any change in the spectra, e.g., the reaction was completed, 100 μL was removed from the cuvette and pipetted into a 96-well microplate. A 5 mL solution containing 50 μL of 10 mM Amplex Red (prepared in DMSO and stored at -20 °C) and 100 μL of 10 U/mL HRP was made up in the above buffer. 100 μL of this was added to each of the wells with each reaction sample. The plate was incubated in the dark at room temperature for 30 min, at which point the absorbance at […]
572 nm was recorded by a Varioskan Lux microplate reader (Thermo Scientific). The absorbance was compared to a standard curve with 0-100 μM H2O2 to quantify the amount of peroxide produced in the reactions.
Purified protein was buffer exchanged into 10 mM HEPES pH 7.5 and concentrated to an A280 value of 12, as measured on a NanoDrop 2000 spectrophotometer (Thermo Fisher). Crystals of GcoA were grown with 2.4 M sodium malonate and 200 mM substrate, dissolved in 40% DMSO where necessary. Crystals were cryocooled directly in liquid N2 without further addition of cryoprotectants. All data were collected at Diamond Light Source (Harwell, UK). For each crystal, 1800 images were taken at 0.1o increments using the default wavelength of 0.9795Å on beamline i04. Data was captured on a Pilatus 6M-F detector. […]

Sequence of GcoA-F169A (P0DPQ7 whole entry F169A): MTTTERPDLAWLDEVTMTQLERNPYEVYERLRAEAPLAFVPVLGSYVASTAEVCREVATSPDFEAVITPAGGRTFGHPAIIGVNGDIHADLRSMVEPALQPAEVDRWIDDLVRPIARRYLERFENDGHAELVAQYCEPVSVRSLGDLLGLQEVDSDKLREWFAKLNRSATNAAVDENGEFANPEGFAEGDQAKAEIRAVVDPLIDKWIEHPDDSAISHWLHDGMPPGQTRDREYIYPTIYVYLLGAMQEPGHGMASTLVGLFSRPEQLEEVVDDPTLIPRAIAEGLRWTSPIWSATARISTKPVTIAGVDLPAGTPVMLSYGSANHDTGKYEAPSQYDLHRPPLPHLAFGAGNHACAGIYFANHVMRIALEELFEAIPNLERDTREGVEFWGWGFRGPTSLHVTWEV

Take `COc1cccc(O)c1O` [3MC, 3-methoxycatechol]: the “% H2O2 produced” value (100 µM substrate + 100 µM NADH) worked out at 17 ± 0.2%.

For `COc1ccccc1O` [guaiacol, 2-methoxyphenol], the “% H2O2 produced” value (100 µM substrate + 100 µM NADH) came out at 3.7 ± 0.6%.

Consider `COc1cccc(OC)c1O` [syringol, 2,6-dimethoxyphenol], for which the “% H2O2 produced” value is recorded as 7.4 ± 0.03% (100 µM substrate + 100 µM NADH) and 7.9 ± 0.5% (100 µM substrate + 200 µM NADH).
